Drawing on BindingDB's records for patent US20260055079 (Azkarra Therapeutics, 2026), this text covers IC50 for five molecules.

The target of assay [1] is T1, Protein mono-ADP-ribosyltransferase TIPARP (Homo sapiens, UniProt Q7Z3E1).
T1 sequence (Q7Z3E1 whole entry): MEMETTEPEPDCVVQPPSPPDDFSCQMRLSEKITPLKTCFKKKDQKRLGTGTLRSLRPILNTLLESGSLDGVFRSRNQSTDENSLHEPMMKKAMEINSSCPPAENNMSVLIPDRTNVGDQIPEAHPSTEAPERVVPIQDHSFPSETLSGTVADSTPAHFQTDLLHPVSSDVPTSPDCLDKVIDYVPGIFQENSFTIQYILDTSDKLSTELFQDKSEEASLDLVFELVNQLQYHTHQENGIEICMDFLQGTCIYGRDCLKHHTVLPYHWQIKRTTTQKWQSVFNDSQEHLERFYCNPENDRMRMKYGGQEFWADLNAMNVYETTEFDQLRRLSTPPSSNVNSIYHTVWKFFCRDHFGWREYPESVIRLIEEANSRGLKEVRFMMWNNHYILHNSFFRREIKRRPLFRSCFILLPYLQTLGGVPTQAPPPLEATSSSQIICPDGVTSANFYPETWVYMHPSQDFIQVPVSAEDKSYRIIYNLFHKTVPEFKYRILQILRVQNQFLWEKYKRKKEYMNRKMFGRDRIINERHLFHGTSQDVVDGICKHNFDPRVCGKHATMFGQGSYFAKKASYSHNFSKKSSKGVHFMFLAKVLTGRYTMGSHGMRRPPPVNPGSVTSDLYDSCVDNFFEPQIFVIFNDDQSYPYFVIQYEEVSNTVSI
Kind of assay: PARP7 Biochemical Assay. As for the experimental part:
23 μL of 100 nM His-GST-PARP7 in PARP buffer for reaction (PBR) (50 mM HEPES pH 7.5, 100 mM NaCl, 4 mM MgCl2, 0.2 mM TCEP) was added to each well of XpressBio GSH-coated 384 well plates and incubated for 1 h at RT. The plate was then washed for 3 times in 50 μL PBST (1×PBS, 0.02% Tween-20), followed by one wash in 1×PBS and one wash PBR. Each wash was incubated for 3 min. After washing, varying concentrations of each inhibitor was pre-incubated with 20 μM (2×) 6-a-NAD+. The solution was added to the plate, diluted to 1× in PBR, and incubated at 30° C. for 90 min. Following the enzymatic reaction, the plate was washed 3 times in PBST, once in PBS for 3 min each wash. The wells were then subjected to 25 μL of click reaction buffer consisting of 100 μM TBTA, 1 mM CuSO4, 100 μM Biotin-N3, 2 mM TCEP made up in 1×PBS. The wells were incubated in click reaction buffer for 30 min at 30° C. The click buffer was removed, and the plate was washed 3 times with PBST and once with PBS as before. The plate was then blocked with 5% BSA in PBST. The plate was then washed 3 times with PBST and once with PBS. To develop, the plate was incubated with 25 μL of 0.05 ng/μL Step-HRP with 0.02% BSA in PBS. The plate was washed 3 times with PBS before developing with QuantaRed per manufacturer directions. Fluorescence (Excitation 550 nm. Emission 620 nm) was immediately read using a Paradigm Plate Reader.

In assay [2] the target is Poly [ADP-ribose] polymerase 2 (Homo sapiens, UniProt Q9UGN5). In words: Protocol for the PARP1 and PARP2 Biochemical Assays. As for the experimental part: (§1) Each wash was incubated for 3 min. After washing, varying concentrations of each inhibitor was pre-incubated with 20 μM (2×) 6-a-NAD+. 25 μL of the 2×6-a-NAD+/inhibitor mixture was added to the plate with 25 μL of 20 nM of PARP1 or PARP2 in PBR with 0.1 mg/mL Activated DNA (Sigma). PARP final concentration 10 nM. The reaction mixture was incubated at 30° C. for 1 h. The plate was then washed 3 time with PBST and once with PBS. The wells were subjected to a 50 μL click reaction consisting of 100 μM TBTA, 1 mM CuSO4. 100 μM Biotin-N3, 2 mM TCEP made up in 1×PBS at RT for 30 min. The plate was then washed 3 times with PBST before blocking in 100 μL of 1% Milk (Carnation) in PBST at RT for 30 min. The plate was again washed 3 times with PBST and once with PBS before incubation with Strep-HRP (0.05 ng/μL Strep-HRP (Fisher Scientific), 300 ng/μL BSA, 1×PBS) for 30 min at RT. The plate was washed 3 time in PBST and once with PBS before development with QuantaRed (Pierce) per manufacturer directions.
Poly [ADP-ribose] polymerase 2, sequence (Q9UGN5 whole entry): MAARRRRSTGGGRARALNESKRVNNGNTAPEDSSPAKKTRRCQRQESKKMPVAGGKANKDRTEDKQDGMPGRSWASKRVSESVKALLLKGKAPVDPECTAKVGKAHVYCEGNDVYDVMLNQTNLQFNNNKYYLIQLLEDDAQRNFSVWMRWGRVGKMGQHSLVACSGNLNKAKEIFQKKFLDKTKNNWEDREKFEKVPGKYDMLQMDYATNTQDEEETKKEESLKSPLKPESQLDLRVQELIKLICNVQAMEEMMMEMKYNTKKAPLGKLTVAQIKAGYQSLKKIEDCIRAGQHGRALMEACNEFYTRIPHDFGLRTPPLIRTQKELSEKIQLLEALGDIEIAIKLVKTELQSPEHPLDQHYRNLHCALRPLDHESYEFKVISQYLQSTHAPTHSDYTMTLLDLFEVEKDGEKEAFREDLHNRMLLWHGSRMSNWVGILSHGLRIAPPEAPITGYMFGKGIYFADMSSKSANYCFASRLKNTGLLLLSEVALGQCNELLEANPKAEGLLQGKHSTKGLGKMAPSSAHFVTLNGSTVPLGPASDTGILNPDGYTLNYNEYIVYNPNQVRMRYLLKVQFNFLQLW

Assay [3] deals with Poly [ADP-ribose] polymerase 1 (Homo sapiens, UniProt P09874). The assay is described as above. As for the experimental part:
as §1

Poly [ADP-ribose] polymerase 1, sequence (P09874 whole entry): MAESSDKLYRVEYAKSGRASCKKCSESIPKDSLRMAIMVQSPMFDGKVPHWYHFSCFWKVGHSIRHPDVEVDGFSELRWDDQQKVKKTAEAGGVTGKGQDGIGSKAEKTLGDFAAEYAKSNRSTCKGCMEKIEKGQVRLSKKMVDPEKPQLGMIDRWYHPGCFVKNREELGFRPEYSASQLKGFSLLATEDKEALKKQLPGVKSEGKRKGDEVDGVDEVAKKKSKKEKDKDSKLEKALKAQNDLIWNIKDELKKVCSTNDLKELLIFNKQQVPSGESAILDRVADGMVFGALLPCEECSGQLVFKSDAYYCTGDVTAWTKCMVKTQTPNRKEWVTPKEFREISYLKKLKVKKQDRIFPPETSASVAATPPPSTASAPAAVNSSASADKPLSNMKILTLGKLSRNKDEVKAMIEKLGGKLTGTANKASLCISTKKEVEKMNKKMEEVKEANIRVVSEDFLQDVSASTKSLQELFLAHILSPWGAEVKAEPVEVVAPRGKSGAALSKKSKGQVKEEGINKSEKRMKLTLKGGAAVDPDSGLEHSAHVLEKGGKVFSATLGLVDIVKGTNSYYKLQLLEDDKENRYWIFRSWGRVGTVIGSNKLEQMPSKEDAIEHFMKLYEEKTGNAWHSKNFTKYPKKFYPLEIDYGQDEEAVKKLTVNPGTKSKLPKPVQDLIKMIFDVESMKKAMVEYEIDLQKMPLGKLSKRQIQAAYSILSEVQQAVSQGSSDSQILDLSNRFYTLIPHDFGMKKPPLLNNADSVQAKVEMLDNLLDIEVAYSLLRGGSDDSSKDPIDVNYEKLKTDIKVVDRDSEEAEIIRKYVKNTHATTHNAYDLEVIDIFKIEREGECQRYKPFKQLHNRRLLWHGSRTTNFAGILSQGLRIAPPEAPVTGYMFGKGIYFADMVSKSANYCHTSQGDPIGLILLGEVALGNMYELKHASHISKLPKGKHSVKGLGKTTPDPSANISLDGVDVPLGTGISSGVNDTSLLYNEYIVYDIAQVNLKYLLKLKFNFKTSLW

With `N#Cc1ccc(N2CCN(C(=O)c3cc(Cc4n[nH]c(=O)c5ccc(/C=C/C(F)(F)F)cc45)ccc3F)CC2)nc1` [US20260055079, Example 27], in assay [1], the IC50 was less than 50 nM. Molecule `CCc1ccc2c(=O)[nH]nc(Cc3ccc(F)c(C(=O)N4CCN(c5ncc(C(F)(F)F)cn5)CC4)c3)c2c1` [US20260055079, Example 43] came in with an IC50 in assay [1] of less than 50 nM. Same read-out and setting: in the case of `N#Cc1ccc(N2CCN(C(=O)c3cc(Cc4n[nH]c(=O)c5ccc(CCC(F)(F)F)cc45)ccc3F)CC2)nc1` [US20260055079, Example 25] it was less than 50 nM. As for `CC#Cc1ccc2c(=O)[nH]nc(Cc3ccc(F)c(C(=O)N4CCN(c5ncc(C(F)(F)F)cn5)CC4)c3)c2c1` [US20260055079, Example 48], the IC50 in assay [2] is greater than 2000 nM.

In the case of `N#Cc1cnc(N2CCN(C(=O)c3cc(Cc4n[nH]c(=O)c5ccc(OC6CCC6)cc45)ccc3F)CC2)cc1C(F)(F)F` [US20260055079, Example 132], the IC50 in assay [3] is greater than 2000 nM; in assay [2], greater than 2000 nM; in assay [1], less than 50 nM.
